Assay results reported in ChEMBL document CHEMBL2150989, “Effect of phospholipid-based formulations of Boswellia serrata extract on the solubility, permeability, and absorption of the individual boswellic acid constituents present” (J Nat Prod, 2012).
≈ marks a conversion by molar mass, not a printed value.

Key:
Brain [1] = test: Drug level in rat brain at 240 mg/kg, po administered using compound, Lipoid S100 and pluronic f127 ratio 1:1:1 formulation; type: ADME, organism-based; set-up: dose 240 mg/kg, route oral; conditions: in vivo
Plasma [2] = test: Plasma concentration in rat at 240 mg/kg, po administered using compound, Lipoid S100 and pluronic f127 ratio 1:1:1 formulation relative to non-formulated compound after 4 to 6 hrs; type: ADME, organism-based; set-up: dose 240 mg/kg, route oral; conditions: in vivo
Brain [3] = test: Drug level in rat brain at 240 mg/kg, po; type: ADME, organism-based; set-up: dose 240 mg/kg, route oral; conditions: in vivo
[4] = Ratio drug level in brain to plasma of rat at 240 mg/kg, po administered using compound, Lipoid S100 and pluronic f127 ratio 1:1:1 formulation after 8 hrs; type: ADME, organism-based; set-up: dose 240 mg/kg, route oral; conditions: read-out: BPR
[5] = Ratio drug level in brain to plasma of rat at 240 mg/kg, po after 8 hrs; type: ADME, organism-based; set-up: dose 240 mg/kg, route oral; conditions: brain and plasma, read-out: BPR
[6] = Permeability from apical to basolateral side of human Caco2 cells assessed as mass balance at compound to Lipoid S100 ratio 1:1; type: ADME, cell-based; conditions: Caco-2, read-out: permeability
[7] = Permeability from apical to basolateral side of human Caco2 cells assessed as mass balance at compound, Lipoid S100 and gelucire 44/14 ratio 1:1:1; type: ADME, cell-based; conditions: Caco-2, read-out: permeability
[8] = Solubility of the compound in modified fasted state simulated intestinal fluid at 5 mg/mL after 3 hrs by HPLC analysis; type: physicochemical
[9] = Permeability from apical to basolateral side of human Caco2 cells assessed as mass balance at compound, Lipoid S100 and pluronic f68 ratio 1:1:1; type: ADME, cell-based; conditions: Caco-2, read-out: permeability
[10] = Solubility of the compound in water at pH 6.5; type: physicochemical
[11] = Apparent permeability from apical to basolateral side of human Caco2 cells at compound, Lipoid S100 and pluronic f127 ratio 1:1:1 using modified fasted state simulated intestinal fluid; type: ADME, cell-based; conditions: Caco-2
[12] = Solubility of the compound in water at 5 mg/mL after 3 hrs by HPLC analysis; type: physicochemical
[13] = Permeability from apical to basolateral side of human Caco2 cells assessed as mass balance at compound, Lipoid S100 and vitamin E-TPGS ratio 1:1:1; type: ADME, cell-based; conditions: Caco-2, read-out: permeability
[14] = Solubility of the compound in HBSS buffer containing 4% bovine serum albumin at 5 mg/mL after 3 hrs by HPLC analysis; type: physicochemical
[15] = Solubility of the compound in fasted state simulated intestinal fluid at compound to Lipoid S100 ratio 1:1 after 3 hrs by HPLC analysis in presence of 10:1 molar ratio of Lipoid S100 to tween 80; type: physicochemical
[16] = Permeability from apical to basolateral side of human Caco2 cells assessed as mass balance at compound, Lipoid S100 and pluronic f127 ratio 1:1:1; type: ADME, cell-based; conditions: Caco-2, read-out: permeability
[17] = Solubility of the compound in fed state simulated intestinal fluid at compound to Lipoid S100 ratio 1:3 after 3 hrs by HPLC analysis; type: physicochemical
[18] = Solubility of the compound in fasted state simulated intestinal fluid at compound to Lipoid S100 ratio 1:1 after 3 hrs by HPLC analysis in presence of 3:1 molar ratio of Lipoid S100 to tween 80; type: physicochemical
[19] = Solubility of the compound in fasted state simulated intestinal fluid at compound to Lipoid S100 ratio 1:3 after 3 hrs by HPLC analysis in presence of 5:1 molar ratio of Lipoid S100 to tween 80; type: physicochemical
[20] = Solubility of the compound in fasted state simulated intestinal fluid at compound to Lipoid S100 ratio 1:3 after 3 hrs by HPLC analysis in presence of 10:1 molar ratio of Lipoid S100 to tween 80; type: physicochemical
[21] = Solubility of the compound in fasted state simulated intestinal fluid at compound to Lipoid S100 ratio 1:1 after 3 hrs by HPLC analysis; type: physicochemical
[22] = Solubility of the compound in fed state simulated intestinal fluid at compound to Lipoid S100 ratio 1:1 after 3 hrs by HPLC analysis; type: physicochemical
[23] = Solubility of the compound in water at compound to Lipoid S100 ratio 1:1 after 3 hrs by HPLC analysis; type: physicochemical
[24] = Solubility of the compound in fasted state simulated intestinal fluid at compound to Lipoid S100 ratio 1:1 after 3 hrs by HPLC analysis in presence of 5:1 molar ratio of Lipoid S100 to tween 80; type: physicochemical
[25] = Solubility of the compound in fasted state simulated intestinal fluid at compound to Lipoid S100 ratio 1:3 after 3 hrs by HPLC analysis in presence of 3:1 molar ratio of Lipoid S100 to tween 80; type: physicochemical
Plasma [26] = test: Plasma concentration in rat at 240 mg/kg, po administered using compound, Lipoid S100 and pluronic f127 ratio 1:1:1 formulation relative to non-formulated compound after 2 hrs; type: ADME, organism-based; set-up: dose 240 mg/kg, route oral; conditions: in vivo
[27] = Permeability from apical to basolateral side of human Caco2 cells assessed as mass balance at compound to Lipoid S100 ratio 1:3 in presence of 5:1 molar ratio of Lipoid S100 to tween 80; type: ADME, cell-based; conditions: Caco-2, read-out: permeability
[28] = Apparent permeability from apical to basolateral side of human Caco2 cells at compound, Lipoid S100 and pluronic f127 ratio 1:1:1 using modified fed state simulated intestinal fluid; type: ADME, cell-based; conditions: Caco-2
[29] = Solubility of the compound in fed state simulated intestinal fluid at 5 mg/mL after 3 hrs by HPLC analysis; type: physicochemical
[30] = Permeability from apical to basolateral side of human Caco2 cells assessed as mass balance at 5 mg/mL; type: ADME, cell-based; conditions: Caco-2, read-out: permeability
Caco-2 = test: Permeability from apical to basolateral side of human Caco2 cells at compound to Lipoid S100 ratio 1:3 in presence of 5:1 molar ratio of Lipoid S100 to tween 80; type: ADME, cell-based; conditions: BLD = below limit of detection
[31] = Solubility of the compound in fasted state simulated intestinal fluid at compound, Lipoid S100 and pluronic f127 ratio 1:1:1 after 3 hrs by HPLC analysis; type: physicochemical
[32] = Permeability from apical to basolateral side of human Caco2 cells assessed as mass balance at compound, Lipoid S100 and tween 80 ratio 1:1:1; type: ADME, cell-based; conditions: Caco-2, read-out: permeability
Plasma [33] = test: Plasma concentration in rat at 240 mg/kg, po administered using compound, Lipoid S100 and pluronic f127 ratio 1:1:1 formulation relative to non-formulated compound after 8 hrs; type: ADME, organism-based; set-up: dose 240 mg/kg, route oral; conditions: in vivo
[34] = Apparent permeability from apical to basolateral side of human Caco2 cells at compound, Lipoid S100 and pluronic f127 ratio 1:1:1 using HBSS buffer; type: ADME, cell-based; conditions: Caco-2
[35] = Permeability from apical to basolateral side of human Caco2 cells assessed as mass balance at compound, Lipoid S100 and vitamin E-TPGS ratio 1:2:1; type: ADME, cell-based; conditions: Caco-2, read-out: permeability
[36] = Permeability from apical to basolateral side of human Caco2 cells assessed as mass balance at compound to Lipoid S100 ratio 1:3; type: ADME, cell-based; conditions: Caco-2, read-out: permeability
[37] = Solubility of the compound in fasted state simulated intestinal fluid at 5 mg/mL after 3 hrs by HPLC analysis; type: physicochemical
[38] = Solubility of the compound in water at compound to Lipoid S100 ratio 1:3 after 3 hrs by HPLC analysis; type: physicochemical
[39] = Solubility of the compound in fasted state simulated intestinal fluid at compound to Lipoid S100 ratio 1:3 after 3 hrs by HPLC analysis; type: physicochemical
Plasma [40] = test: Plasma concentration in rat at 240 mg/kg, po administered using compound, Lipoid S100 and pluronic f127 ratio 1:1:1 formulation; type: ADME, organism-based; set-up: dose 240 mg/kg, route oral; conditions: in vivo
Prostaglandin E synthase = target: T1, Prostaglandin E synthase (Homo sapiens, UniProt O14684); test: Inhibition of mPGES1
T1 sequence (O14684 whole entry): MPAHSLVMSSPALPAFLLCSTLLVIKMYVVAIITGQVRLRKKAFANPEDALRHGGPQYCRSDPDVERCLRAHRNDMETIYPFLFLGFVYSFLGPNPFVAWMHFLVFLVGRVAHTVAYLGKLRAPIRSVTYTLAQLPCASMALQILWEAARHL

Row | Compound | Drug uptake (Brain [1]) [ng/g] | fold change (FC) (Plasma [2]) | Drug uptake (Brain [3]) [ng/g] | Kp at 8 h [4] | Kp at 8 h [5] | recovery [6] [%] | recovery [7] [%] | recovery [9] [%] | solubility [10] [µg/mL] | Papp A→B [11] [×10⁻⁶ cm/s] | solubility at 3 h [12] [µg/mL] | recovery [13] [%] | solubility at 3 h [15] [µg/mL] | recovery [16] [%] | solubility at 3 h [17] [µg/mL] | solubility at 3 h [18] [µg/mL] | solubility at 3 h [19] [µg/mL] | solubility at 3 h [20] [µg/mL] | solubility at 3 h [21] [µg/mL] | solubility at 3 h [22] [µg/mL] | further results
1 | CC(=O)O[C@@H]1CC[C@@]2(C)[C@@H](CC[C@]3(C)[C@@H]2CC=C2[C@@H]4CC(C)(C)CC[C@]4(C)CC[C@]23C)[C@@]1(C)C(=O)O | 60.1 | 26 | 43 |  |  |  |  |  |  |  |  |  |  |  |  |  |  |  |  |  | 
2 | CC(=O)O[C@@H]1CC[C@@]2(C)[C@@H](CC[C@]3(C)[C@@H]2CC=C2[C@@H]4[C@@H](C)[C@H](C)CC[C@]4(C)CC[C@]23C)[C@@]1(C)C(=O)O | 156.1 | 26 | 163.7 |  |  |  |  |  |  |  |  |  |  |  |  |  |  |  |  |  | 
3 | CC1(C)CC[C@]2(C)CC[C@]3(C)C(=CC[C@@H]4[C@@]5(C)CC[C@@H](O)[C@](C)(C(=O)O)[C@@H]5CC[C@]43C)[C@@H]2C1 | 2443.9 | 26 | 485.1 | 4.4 | 0.18 |  |  |  |  |  |  |  |  |  |  |  |  |  |  |  | 
4 | C[C@H]1[C@H](C)CC[C@]2(C)CC[C@]3(C)C(=CC(=O)[C@@H]4[C@@]5(C)CC[C@@H](O)[C@](C)(C(=O)O)[C@@H]5CC[C@]43C)[C@H]12 [11-KETO BOSWELLIC ACID] | 13.6 |  | 11.6 |  |  | 93.9 | 92 | 90.1 | 73.1 (≈ 155 µM) | 3.7 | 1.16 (≈ 2.46 µM) | 101 | 78.2 | 99.9 | 183 | 164 | 293 | 246 | 124 | 252 | solubility at 3 h [8]: 17 µg/mL (≈ 36.1 µM); solubility at 3 h [14]: 17.5 µg/mL (≈ 37.1 µM); solubility at 3 h [23]: 5.18 µg/mL; solubility at 3 h [24]: 109 µg/mL; solubility at 3 h [25]: 400 µg/mL; fold change (FC) (Plasma [26]): 26; recovery [27]: 102%; Papp A→B [28]: 3.2 ×10⁻⁶ cm/s; solubility at 3 h [29]: 73.1 µg/mL (≈ 155 µM); recovery at 5 mg/mL [30]: 101%; permeability (Caco-2): BLD; solubility at 3 h [31]: 395 µg/mL; recovery [32]: 96.3%; fold change (FC) (Plasma [33]): 6; Papp A→B [34]: 2.9 ×10⁻⁶ cm/s; recovery [35]: 99.8%; recovery [36]: 96%; solubility at 3 h [37]: 15.9 µg/mL (≈ 33.8 µM); solubility at 3 h [38]: 192 µg/mL; solubility at 3 h [39]: 151 µg/mL
5 | CC(=O)O[C@@H]1CC[C@@]2(C)[C@@H](CC[C@]3(C)[C@@H]2C(=O)C=C2[C@@H]4[C@@H](C)[C@H](C)CC[C@]4(C)CC[C@]23C)[C@@]1(C)C(=O)O [AKBA] | 203.8 |  | 37.5 | 2.2 | 0.07 | 88.3 | 90.7 | 87.8 | > 60 | 3.1 | 0.2 (≈ 0.39 µM) | 98.8 | 13.4 | 101 | 35.8 | 27.6 | 59.5 | 44.7 | 24.2 | 48 | concentration (Plasma [40]): 1700 nM; solubility at 3 h [23]: 0.87 µg/mL; solubility at 3 h [24]: 18.2 µg/mL; solubility at 3 h [25]: 69.5 µg/mL; fold change (FC) (Plasma [26]): 14; recovery [27]: 104%; Papp A→B [28]: 2.8 ×10⁻⁶ cm/s; solubility at 3 h [29]: 13.2 µg/mL (≈ 25.8 µM); recovery at 5 mg/mL [30]: 95.2%; permeability (Caco-2): BLD; solubility at 3 h [31]: 65.3 µg/mL; recovery [32]: 93.3%; fold change (FC) (Plasma [33]): 6; Papp A→B [34]: 2.5 ×10⁻⁶ cm/s; recovery [35]: 98%; recovery [36]: 96.4%; solubility at 3 h [37]: 3.05 µg/mL (≈ 5.95 µM); solubility at 3 h [38]: 51.4 µg/mL; solubility at 3 h [39]: 29.7 µg/mL
6 | C[C@H]1[C@H](C)CC[C@]2(C)CC[C@]3(C)C(=CC[C@@H]4[C@@]5(C)CC[C@@H](O)[C@](C)(C(=O)O)[C@@H]5CC[C@]43C)[C@H]12 [BOSWELLIC ACID] | 5908.2 | 26 | 1066.6 | 5.5 | 0.2 |  |  |  |  |  |  |  |  |  |  |  |  |  |  |  | IC50 (Prostaglandin E synthase): 5 µM
